This note sets out measurements from patent publication US10342781B2, “Diazole amides” (CHEMOCENTRYX, INC., priority 2012, dated 2019).

The first experiment addresses T1, CCR1 (Homo sapiens, UniProt P32246).
T1 construct: host or cells: THP-1 myelomonocytic leukemia cells (or freshly isolated monocytes)
T1 sequence (P32246 1-355): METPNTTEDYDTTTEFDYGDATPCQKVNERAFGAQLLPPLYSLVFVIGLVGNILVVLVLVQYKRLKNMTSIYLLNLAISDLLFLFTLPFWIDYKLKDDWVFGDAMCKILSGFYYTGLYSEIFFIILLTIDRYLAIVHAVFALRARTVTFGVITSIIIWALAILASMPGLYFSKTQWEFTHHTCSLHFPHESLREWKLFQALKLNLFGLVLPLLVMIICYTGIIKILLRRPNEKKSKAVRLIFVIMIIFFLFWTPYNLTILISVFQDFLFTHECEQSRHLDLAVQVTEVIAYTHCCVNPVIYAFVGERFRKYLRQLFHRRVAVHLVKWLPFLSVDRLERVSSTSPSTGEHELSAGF
In words: Chemotaxis (migration) assay. The class given is cell-based. The note with it: THP-1 or monocyte cells, CCR1 chemokine ligand (MIP-1α, CCL15/Leukotactin), 1-2 hours at 37° C. As to the method: THP-1 cells were obtained from ATCC (TIB-202) and cultured as a suspension in RPMI-1640 medium supplemented with 2 mM L-glutamine, 1.5 g/L sodium bicarbonate, 4.5 g/L glucose, 10 mM HEPES, 1 mM sodium pyruvate, 0.05% 2-mercaptoethanol and 10% FBS. Cells were grown under 5% CO2/95% air, 100% humidity at 37° C. and subcultured twice weekly at 1:5 (cells were cultured at a density range of 2×10^5 to 2×10^6 cells/mL) and harvested at 1×10^6 cells/mL. THP-1 cells express CCR1 and can be used in CCR1 binding and functional assays.
Chemotaxis assays were performed using 5 μm pore polycarbonate, polyvinylpyrrolidone-coated filters in 96-well chemotaxis chambers (Neuroprobe; Gaithersburg, Md.) using chemotaxis buffer (Hank's balanced salt solution (HBSS) and 1% FBS). CCR1 chemokine ligands (i.e., MIP-1α, CCL15/Leukotactin; R&D Systems; Minneapolis, Minn.) are use to evaluate compound mediated inhibition of CCR1 mediated migration. Other chemokines (i.e., SDF-1α; R&D Systems; Minneapolis, Minn.) are used as specificity controls. The lower chamber was loaded with 29 μl of chemokine (i.e., 0.1 nM CCL15/Leukotactin) and varying amounts of compound, the top chamber contained 100,000 THP-1 or monocyte cells in 20 μl. The chambers were incubated 1-2 hours at 37° C., and the number of cells in the lower chamber quantified either by direct cell counts in five high powered fields per well or by the CyQuant assay (Molecular Probes), a fluorescent dye method that measures nucleic acid content and microscopic observation.
One of the primary functions of chemokines is their ability to mediate the migration of chemokine receptor-expressing cells, such as white blood cells. To confirm that a compound of interest inhibited not only CCR1 specific binding and signaling (at least as determined by calcium mobilization assays), but also CCR1 mediated migration, a chemotaxis assay was employed. THP-1 myelomonocytic leukemia cells, which resemble monocytes, as wells as freshly isolated monocytes, were used as targets for chemoattraction by CCR1 chemokine ligands (i.e., MIP-1α, CCL15/leukotactin). Cells were placed in the top compartment of a microwell migration chamber, while MIP-1α (or other potent CCR1 chemokine ligand) and increasing concentrations of a compound of interest was loaded in the lower chamber. […] To ascertain a compound of interest's affinity for CCR1 as well as to confirm its ability to inhibit CCR1 mediated cell migration, inhibitory activity was titered over a 1×10^−10 to 1×10^−4 M range of compound concentrations in this chemotaxis assay. In this assay, the amount of compound was varied; while cell number and chemokine agonist concentrations were held constant. After the chemotaxis chambers were incubated 1-2 hours at 37° C., the responding cells in the lower chamber were quantified by labeling with the CyQuant assay (Molecular Probes), a fluorescent dye method that measures nucleic acid content, and by measuring with a Spectrafluor Plus (Tecan). The computer program Prism from GraphPad, Inc. (San Diego, Ca) was used to calculate IC50 values. IC50 values are those compound concentrations required to inhibit the number of cells responding to a CCR1 agonist by 50%.
Usually IC50 stands for the concentration at which inhibition is half-maximal. Low readings indicate inhibition by little substance, high ones a need for much substance. On to `Cc1c(Cl)c(C(F)(F)F)nn1CC(=O)Nc1cnn(-c2ccc(F)cc2)c1` [1.027], for which the IC50 lay within 0.1 to 10 µM. Compound `Cc1c(Cl)c(C(F)(F)F)nn1C(C)(C)C(=O)Nc1cnn(-c2ccc(F)cc2)c1C(C)C` [1.007] returned an IC50 of 0.1 to 10 µM. Take `Cc1nc(C(F)(F)F)cn1C(C)C(=O)Nc1cnn(-c2ccc(F)cc2)c1C(C)C` (stereo not drawn) [1.018]: the IC50 is at most 0.1 µM. On to `Cc1nc(C(F)(F)F)c2n1C(C(=O)Nc1cnn(-c3ccc(Cl)cc3)c1C(C)C)CCC2` (stereo not drawn) [1.012], for which the IC50 is at most 0.1 µM. For the compound `Cc1c(Cl)c(C(F)(F)F)nn1CC(=O)Nc1cnn(-c2ccc(F)cc2)c1-c1ccccc1` [1.021], the IC50 was in the range of 0.1 to 10 µM. Same read-out and setting: in the case of `CCC(C(=O)Nc1cnn(-c2ccc(F)cc2)c1C(C)C)n1nc(C(F)(F)F)c(Cl)c1C` (stereo not drawn) [1.017] it was at most 0.1 µM. `Cc1c(Cl)c(C(F)(F)F)nn1CC(=O)N(C)c1cnn(-c2ccc(F)cc2)c1` [1.026]: the IC50 lay within 0.1 to 10 µM. The same measure, in the same setting: as for `CCC(C(=O)Nc1cnn(-c2ccc(F)cc2)c1C(C)C)n1cc(C(F)(F)F)nc1C` (stereo not drawn) [1.019], the figure is at most 0.1 µM.

For the compound `Cc1nc(C(F)(F)F)nn1C(C)C(=O)Nc1cnn(-c2ccc(Cl)cc2)c1C(C)C` (stereo not drawn) [1.010], the IC50 was at most 0.1 µM.

Compound `Cc1nc(C(F)(F)F)cn1[C@@H](C)C(=O)Nc1cnn(-c2ccc(Cl)cc2)c1C1CCC1` [1.029] returned an IC50 of at most 0.1 µM. Consider `CCc1c(NC(=O)Cn2nc(C(F)(F)F)c(Cl)c2C)cnn1-c1ccc(F)cc1` [1.023], for which the IC50 lay within 0.1 to 10 µM. As to `Cc1nc(C(F)(F)F)cn1C(C)C(=O)Nc1cnn(-c2ccc(Cl)cc2)c1C(C)C` (stereo not drawn) [1.011], the IC50 is at most 0.1 µM. Same read-out and setting: as for `Cc1c(Cl)c(C(F)(F)F)nn1C(CCCCO)C(=O)Nc1cnn(-c2ccc(F)cc2)c1C(C)C` (stereo not drawn) [1.014], the figure is 0.1 to 10 µM; as for `Cc1nc(C(F)(F)F)cn1C(C)C(=O)Nc1cnn(-c2ccc(F)cc2)c1OC(C)C` (stereo not drawn) [1.005], 0.1 to 10 µM; as for `Cc1nc(C(F)(F)F)cn1C(C)C(=O)Nc1nnn(-c2ccc(Cl)cc2)c1C(C)C` (stereo not drawn) [1.001], at most 0.1 µM. Same read-out and setting: as for `Cc1nc(C(F)(F)F)nn1C(C)C(=O)Nc1cnn(-c2ccc(F)cc2)c1C(C)C` (stereo not drawn) [1.008], the figure is 0.1 to 10 µM. As for `Cc1nc(C(F)(F)F)cn1C(C)C(=O)Nc1cnn(-c2ccc(F)cc2)c1C(C)C` (stereo not drawn) [1.009], the IC50 was at most 0.1 µM.

Take `Cc1c(Cl)c(C(F)(F)F)nn1CC(=O)Nc1cnn(-c2ccc(F)cc2)c1C` [1.025]: the IC50 was 0.1 to 10 µM.

`Cc1nc(C(F)(F)F)cn1C(C)C(=O)Nc1cnn(-c2ccc(Cl)cc2)c1C1CC1` (stereo not drawn) [1.002] showed an IC50 of 0.1 to 10 µM. On to `Cc1nc(C(F)(F)F)cn1C(C)C(=O)Nc1cnn(-c2ccc(Cl)cc2)c1C(C)C` (stereo not drawn) [1.015], for which the IC50 was at most 0.1 µM. Same read-out and setting: in the case of `Cc1c(NC(=O)Cn2nc(C(F)(F)F)c(Cl)c2C)ncn1-c1ccc(F)cc1` [1.020] it was 0.1 to 10 µM; in that of `Cc1nc(C(F)(F)F)cn1C(C)C(=O)Nc1cnn(-c2ccc(F)cc2)c1C(C)(C)C` (stereo not drawn) [1.013], 0.1 to 10 µM; in that of `Cc1nc(C(F)(F)F)cn1C(C)C(=O)Nc1cnc(-c2ccc(Cl)cc2)n1C(C)C` (stereo not drawn) [1.028], 0.1 to 10 µM. Same read-out and setting: in the case of `Cc1c(Cl)c(C(F)(F)F)nn1CC(=O)Nc1cnn(-c2ccc(F)cc2)c1C(C)C` [1.022] it was at most 0.1 µM; in that of `Cc1nc(C(F)(F)F)cn1C(C)C(=O)Nc1cnn(-c2ccc(F)cc2)c1Cl` (stereo not drawn) [1.004], 0.1 to 10 µM; in that of `CCOc1c(NC(=O)C(C)n2cc(C(F)(F)F)nc2C)cnn1-c1ccc(F)cc1` (stereo not drawn) [1.006], 0.1 to 10 µM. On the same count and under the same terms, in the case of `Cc1c(Cl)c(C(F)(F)F)nn1C(C)C(=O)Nc1cnn(-c2ccc(F)cc2)c1C(C)C` (stereo not drawn) [1.016] it was at most 0.1 µM; in that of `Cc1nc(C(F)(F)F)cn1C(C)C(=O)Nc1cnn(-c2ccc(F)cc2)c1C` (stereo not drawn) [1.024], 0.1 to 10 µM. As to `Cc1nc(C(F)(F)F)cn1C(C)C(=O)Nc1cnn(-c2ccc(F)cc2)c1N(C)C` (stereo not drawn) [1.003], the IC50 lay in the range of 0.1 to 10 µM.

In another experiment the test system is inflammatory cells recruited to the inflamed synovial fluid of the knee joints. Description: Rabbit model of destructive joint inflammation (rabbit LPS study). The class given is in vivo, Female New Zealand rabbits. The note with it: intra-articular LPS (10 ng), dosed orally in 1% methocel 2 hours before and 4 hours after LPS, knees lavaged sixteen hours after LPS. The method, then: A rabbit LPS study was conducted essentially as described in Podolin, et al. J. Immunol. 169(11):6435-6444 (2002). Female New Zealand rabbits (approximately 2 kilograms) were treated intra-articularly in both knees with LPS (10 ng). The compound of interest, for example 1.016, (formulated in 1% methocel) or vehicle (1% methocel) was dosed orally at a 5 ml/kg dose volume at two times (2 hours before the intra-articular LPS injection and 4 hours after the intra-articular LPS injection). Sixteen hours after the LPS injection, knees were lavaged and cells counts were performed. Beneficial effects of treatment were determined by reduction in the number of inflammatory cells recruited to the inflamed synovial fluid of the knee joints.
As to `Cc1c(Cl)c(C(F)(F)F)nn1C(C)C(=O)Nc1cnn(-c2ccc(F)cc2)c1C(C)C` (stereo not drawn) [1.016], the “reduction in the number of inflammatory cells recruited to the inflamed synovial fluid of the knee joints” value was “significant reduction in recruited inflammatory cells”.
